Laboratory results taken from ChEMBL document CHEMBL1201862, “PubChem BioAssay data set” (2004).
Active and inactive are the calls of the source.

How the values were obtained:
Exodeoxyribonuclease V = molecular target: T1, Exodeoxyribonuclease V (Escherichia coli (strain K12), UniProt P04993+P07648+P08394); assay: RecBCD inhibition via phage-restricted bacterial growth – absorbance, V66 E. coli, mutant T4 phage, counter-screen for AddAB inhibitor project, dose response (AID 492957); assay type: functional, cell-based, Escherichia coli str. K-12 substr. MG1655
T1 sequence (P04993 whole entry): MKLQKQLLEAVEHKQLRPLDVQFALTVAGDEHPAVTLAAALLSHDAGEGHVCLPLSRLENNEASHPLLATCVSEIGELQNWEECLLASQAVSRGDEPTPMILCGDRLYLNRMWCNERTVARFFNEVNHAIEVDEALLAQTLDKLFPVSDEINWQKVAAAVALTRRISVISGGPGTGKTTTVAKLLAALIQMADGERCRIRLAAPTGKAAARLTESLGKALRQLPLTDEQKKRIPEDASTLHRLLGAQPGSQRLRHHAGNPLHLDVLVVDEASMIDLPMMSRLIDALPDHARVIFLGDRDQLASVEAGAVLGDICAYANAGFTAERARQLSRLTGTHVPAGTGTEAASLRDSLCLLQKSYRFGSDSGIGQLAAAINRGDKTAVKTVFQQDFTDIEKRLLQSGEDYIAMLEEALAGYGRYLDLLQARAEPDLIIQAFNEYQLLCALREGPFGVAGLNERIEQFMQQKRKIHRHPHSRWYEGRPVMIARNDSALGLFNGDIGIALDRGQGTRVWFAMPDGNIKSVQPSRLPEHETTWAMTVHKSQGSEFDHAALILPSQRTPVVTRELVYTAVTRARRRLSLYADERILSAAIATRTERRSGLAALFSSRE
T1 sequence (P07648 whole entry): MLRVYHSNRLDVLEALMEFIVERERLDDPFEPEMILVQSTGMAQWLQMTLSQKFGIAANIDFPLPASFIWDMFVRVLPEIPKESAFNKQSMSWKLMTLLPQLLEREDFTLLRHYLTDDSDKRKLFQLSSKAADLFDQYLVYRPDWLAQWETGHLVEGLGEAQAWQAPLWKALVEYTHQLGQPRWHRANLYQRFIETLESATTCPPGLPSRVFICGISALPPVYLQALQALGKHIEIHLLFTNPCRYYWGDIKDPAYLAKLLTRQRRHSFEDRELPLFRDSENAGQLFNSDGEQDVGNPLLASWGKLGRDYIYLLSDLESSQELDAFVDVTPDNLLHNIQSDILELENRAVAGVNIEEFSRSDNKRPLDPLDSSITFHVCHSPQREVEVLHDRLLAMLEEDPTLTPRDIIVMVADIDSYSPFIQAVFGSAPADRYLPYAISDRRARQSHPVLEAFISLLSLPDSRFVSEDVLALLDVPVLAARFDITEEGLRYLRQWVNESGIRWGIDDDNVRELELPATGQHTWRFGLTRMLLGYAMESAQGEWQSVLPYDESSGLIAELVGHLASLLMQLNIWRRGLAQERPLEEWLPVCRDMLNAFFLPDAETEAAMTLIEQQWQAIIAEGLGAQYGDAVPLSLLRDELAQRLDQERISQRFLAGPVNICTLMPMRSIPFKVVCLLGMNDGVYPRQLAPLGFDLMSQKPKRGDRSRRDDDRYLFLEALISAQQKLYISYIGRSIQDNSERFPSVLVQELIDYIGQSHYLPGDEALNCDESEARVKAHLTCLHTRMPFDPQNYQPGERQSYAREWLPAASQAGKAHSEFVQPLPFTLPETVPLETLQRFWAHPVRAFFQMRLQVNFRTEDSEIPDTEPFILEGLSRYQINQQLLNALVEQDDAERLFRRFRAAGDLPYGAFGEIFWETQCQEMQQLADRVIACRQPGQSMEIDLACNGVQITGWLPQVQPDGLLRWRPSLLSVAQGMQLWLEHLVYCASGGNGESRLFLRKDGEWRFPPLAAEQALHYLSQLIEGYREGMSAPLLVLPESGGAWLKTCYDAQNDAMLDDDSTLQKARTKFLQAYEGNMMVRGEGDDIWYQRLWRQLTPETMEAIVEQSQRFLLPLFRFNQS
T1 sequence (P08394 whole entry): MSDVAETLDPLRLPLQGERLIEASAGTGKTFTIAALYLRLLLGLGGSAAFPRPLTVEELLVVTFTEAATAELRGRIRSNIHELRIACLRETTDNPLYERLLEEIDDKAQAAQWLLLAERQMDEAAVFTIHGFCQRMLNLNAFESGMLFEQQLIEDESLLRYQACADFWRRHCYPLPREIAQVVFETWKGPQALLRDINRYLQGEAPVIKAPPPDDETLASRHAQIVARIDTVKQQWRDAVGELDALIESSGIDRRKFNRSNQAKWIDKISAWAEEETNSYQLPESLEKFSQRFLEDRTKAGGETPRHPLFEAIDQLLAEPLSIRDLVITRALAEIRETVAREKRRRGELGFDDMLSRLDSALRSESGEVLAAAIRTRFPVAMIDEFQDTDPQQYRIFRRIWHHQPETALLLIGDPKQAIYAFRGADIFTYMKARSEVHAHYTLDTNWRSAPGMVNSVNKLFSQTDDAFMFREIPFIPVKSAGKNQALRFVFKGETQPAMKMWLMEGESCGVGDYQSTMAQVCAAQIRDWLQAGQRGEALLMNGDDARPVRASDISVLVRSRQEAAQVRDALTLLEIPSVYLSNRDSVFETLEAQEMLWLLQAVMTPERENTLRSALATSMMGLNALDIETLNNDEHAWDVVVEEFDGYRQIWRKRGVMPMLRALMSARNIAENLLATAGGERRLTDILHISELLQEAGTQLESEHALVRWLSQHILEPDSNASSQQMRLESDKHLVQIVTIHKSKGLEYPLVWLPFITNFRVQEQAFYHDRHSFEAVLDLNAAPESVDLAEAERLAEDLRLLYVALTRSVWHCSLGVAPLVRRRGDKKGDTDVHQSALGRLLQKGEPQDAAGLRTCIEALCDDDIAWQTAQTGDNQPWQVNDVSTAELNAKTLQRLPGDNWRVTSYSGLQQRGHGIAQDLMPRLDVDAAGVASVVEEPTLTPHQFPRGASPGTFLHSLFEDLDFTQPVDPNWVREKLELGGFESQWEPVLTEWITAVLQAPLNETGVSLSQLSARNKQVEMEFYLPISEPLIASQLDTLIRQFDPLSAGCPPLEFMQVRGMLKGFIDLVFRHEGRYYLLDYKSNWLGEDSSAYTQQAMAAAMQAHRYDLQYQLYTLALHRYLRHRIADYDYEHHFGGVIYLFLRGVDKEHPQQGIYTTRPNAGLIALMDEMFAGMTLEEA

[1] = Counterscreen for AddAB inhibitors: absorbance-based bacterial cell-based high throughput dose response assay for inhibitors of bacterial viability. [Related pubchem assays (depositor defined):AID435030, AID449728, AID449731, AID488942, AID488955, AID488956]; assay type: functional
[2] = reduction of Shn3 3'UTR-driven luciferase in osteoblasts – cell-based, Clone20 osteoblasts, firefly luciferase, cherry-picked, dose response (AID 624132); assay type: functional;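 note: firefly luciferase luminescence from reporter carrying the Shn3 3'UTR in osteoblasts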
[3] = loss of viability in HepG2 cells – cell-based, CellTiter-Glo, cherry-picked, cytotoxicity control for Shn3 inhibitor project, dose response (AID 624134); assay type: functional
[4] = molecular target: Photoreceptor-specific nuclear receptor (Homo sapiens, UniProt Q9Y5X4); assay type: functional, cell-based;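 note: CHO-S cells with Gal4-NCOR and VP16-NR2E3 two-hybrid luciferase reporter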
[5] = molecular target: T2, Probable nicotinate-nucleotide adenylyltransferase (Staphylococcus aureus (strain N315), UniProt P65502); assay type: functional, Staphylococcus aureus subsp. aureus N315;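 for IC50 Mean: confirmatory dose-response retesting of NadD inhibitor hits first found in an ultra-high-throughput screen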
[6] = molecular target: T2, Probable nicotinate-nucleotide adenylyltransferase; assay type: functional, Staphylococcus aureus subsp. aureus N315; details: read-out: IC50_Mean
BJ [7] = assay: BJ-TERT fibroblast viability loss – cell-based, RAS-independent, luminescence, dose response (AID 1933); assay type: functional; details: Homo sapiens
BJ [8] = assay: cells; assay type: functional, cell-based; details: Homo sapiens
BJ [9] = assay: BJ-TERT-LT-ST fibroblast viability loss – cell-based, RAS-independent, luminescence, dose response (AID 1935); assay type: functional; details: Homo sapiens;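 note: BJ fibroblasts immortalized with TERT plus LT and ST oncogenes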
[10] = DRD fibroblast viability loss – cell-based, non-viral oncogenic, luminescence, dose response (AID 1934); assay type: functional; details: Homo sapiens
[11] = molecular target: T3, Replicative DNA helicase DnaB (Mycobacterium tuberculosis, UniProt P9WMR3); assay: DnaB intein splicing inhibitors, dose response, biochemical, cell-free fluorescence (AID 449749); assay type: functional
T3 sequence (P9WMR3 whole entry): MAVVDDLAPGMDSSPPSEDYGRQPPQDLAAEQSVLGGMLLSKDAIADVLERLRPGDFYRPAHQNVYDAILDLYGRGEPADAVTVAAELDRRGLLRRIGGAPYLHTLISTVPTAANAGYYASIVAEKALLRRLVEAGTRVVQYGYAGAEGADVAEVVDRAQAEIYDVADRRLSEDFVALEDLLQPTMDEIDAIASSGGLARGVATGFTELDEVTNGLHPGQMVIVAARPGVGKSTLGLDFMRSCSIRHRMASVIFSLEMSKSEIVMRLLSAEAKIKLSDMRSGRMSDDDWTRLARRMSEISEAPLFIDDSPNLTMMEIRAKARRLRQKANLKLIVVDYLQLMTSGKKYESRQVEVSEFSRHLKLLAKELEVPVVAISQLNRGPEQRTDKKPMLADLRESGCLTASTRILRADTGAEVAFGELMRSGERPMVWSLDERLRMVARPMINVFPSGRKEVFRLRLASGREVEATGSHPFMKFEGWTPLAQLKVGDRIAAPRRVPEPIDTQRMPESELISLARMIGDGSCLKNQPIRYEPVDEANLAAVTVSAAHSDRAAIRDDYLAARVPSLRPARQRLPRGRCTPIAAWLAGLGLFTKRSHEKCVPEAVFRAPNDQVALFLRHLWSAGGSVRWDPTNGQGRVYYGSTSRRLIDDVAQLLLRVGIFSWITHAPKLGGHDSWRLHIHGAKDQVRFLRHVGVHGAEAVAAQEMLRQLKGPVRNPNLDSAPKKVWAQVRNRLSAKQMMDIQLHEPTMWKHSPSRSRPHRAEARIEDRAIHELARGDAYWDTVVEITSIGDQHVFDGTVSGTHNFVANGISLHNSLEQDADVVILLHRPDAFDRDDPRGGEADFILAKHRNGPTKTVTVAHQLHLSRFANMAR

BJ [12] = assay: growth inhibition of engineered Ras-driven BJ cells – cell-based, alamar blue fluorescence, cherrypicked samples, dose response (AID 2631); assay type: functional; details: Homo sapiens;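 note: confirmatory dose-response assay in RAS-dependent BJ fibroblasts engineered with TERT, LT and ST, with cytotoxicity read by fluorescence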
Protein RecA = molecular target: T4, Protein RecA (Mycobacterium tuberculosis, UniProt P9WHJ3); assay: Fluorescence Cell-Free Homogeneous Dose Retest to Identify Inhibitors of RecA-Intein Splicing Activity. [Related pubchem assays (depositor defined):AID2097, AID2223, AID489010, AID492950]; assay type: functional
T4 sequence (P9WHJ3 whole entry): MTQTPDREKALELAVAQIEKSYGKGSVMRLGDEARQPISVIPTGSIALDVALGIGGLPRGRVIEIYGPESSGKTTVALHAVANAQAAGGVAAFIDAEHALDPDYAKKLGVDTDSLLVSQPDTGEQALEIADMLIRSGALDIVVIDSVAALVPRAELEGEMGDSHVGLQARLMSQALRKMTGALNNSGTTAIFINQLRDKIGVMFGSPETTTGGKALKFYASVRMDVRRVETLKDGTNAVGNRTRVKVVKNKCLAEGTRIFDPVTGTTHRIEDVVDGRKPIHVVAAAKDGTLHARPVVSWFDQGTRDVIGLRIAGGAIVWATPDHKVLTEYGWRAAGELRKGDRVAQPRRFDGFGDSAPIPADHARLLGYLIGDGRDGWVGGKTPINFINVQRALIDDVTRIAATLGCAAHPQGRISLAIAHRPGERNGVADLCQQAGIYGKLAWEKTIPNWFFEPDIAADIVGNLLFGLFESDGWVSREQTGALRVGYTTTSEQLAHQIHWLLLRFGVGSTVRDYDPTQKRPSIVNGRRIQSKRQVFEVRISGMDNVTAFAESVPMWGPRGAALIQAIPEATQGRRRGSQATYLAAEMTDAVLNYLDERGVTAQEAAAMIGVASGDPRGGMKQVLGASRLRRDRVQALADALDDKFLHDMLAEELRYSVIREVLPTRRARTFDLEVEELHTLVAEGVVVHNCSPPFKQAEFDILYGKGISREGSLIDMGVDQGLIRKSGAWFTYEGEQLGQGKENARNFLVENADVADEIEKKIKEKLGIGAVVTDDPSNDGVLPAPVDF

[13] = molecular target: Protein disulfide-isomerase (Homo sapiens, UniProt P07237); assay: inhibition of PDI-driven insulin aggregation – biochemical, turbidity, absorbance, cherry-picked samples, dose response (AID 602350); assay type: functional
Protein disulfide-isomerase, sequence (P07237 whole entry): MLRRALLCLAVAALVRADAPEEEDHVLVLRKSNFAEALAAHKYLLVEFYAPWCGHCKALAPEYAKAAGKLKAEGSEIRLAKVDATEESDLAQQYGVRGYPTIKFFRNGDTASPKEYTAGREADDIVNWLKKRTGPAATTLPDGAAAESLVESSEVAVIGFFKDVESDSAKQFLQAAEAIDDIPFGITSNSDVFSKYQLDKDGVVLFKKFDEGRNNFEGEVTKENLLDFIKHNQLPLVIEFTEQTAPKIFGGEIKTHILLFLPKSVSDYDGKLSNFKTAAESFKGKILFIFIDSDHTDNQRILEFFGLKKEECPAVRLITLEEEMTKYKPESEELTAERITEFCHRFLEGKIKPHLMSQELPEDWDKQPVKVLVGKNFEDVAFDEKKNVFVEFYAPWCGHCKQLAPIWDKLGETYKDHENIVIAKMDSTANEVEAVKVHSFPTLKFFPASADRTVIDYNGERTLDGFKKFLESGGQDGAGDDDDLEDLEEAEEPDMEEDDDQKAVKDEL

Photoreceptor-specific nuclear receptor, sequence (Q9Y5X4 whole entry, the tested form may be a part): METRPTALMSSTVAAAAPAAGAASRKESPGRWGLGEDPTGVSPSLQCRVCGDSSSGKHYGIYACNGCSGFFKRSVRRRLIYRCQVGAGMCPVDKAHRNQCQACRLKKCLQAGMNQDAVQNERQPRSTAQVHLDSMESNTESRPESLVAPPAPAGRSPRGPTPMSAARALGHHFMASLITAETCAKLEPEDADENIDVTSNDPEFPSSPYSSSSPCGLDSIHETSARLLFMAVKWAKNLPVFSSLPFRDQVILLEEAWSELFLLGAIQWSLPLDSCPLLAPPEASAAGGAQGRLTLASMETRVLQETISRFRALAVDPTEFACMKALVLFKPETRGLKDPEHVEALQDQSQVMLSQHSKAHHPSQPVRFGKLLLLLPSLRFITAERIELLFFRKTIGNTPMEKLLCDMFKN
T2 sequence (P65502 whole entry): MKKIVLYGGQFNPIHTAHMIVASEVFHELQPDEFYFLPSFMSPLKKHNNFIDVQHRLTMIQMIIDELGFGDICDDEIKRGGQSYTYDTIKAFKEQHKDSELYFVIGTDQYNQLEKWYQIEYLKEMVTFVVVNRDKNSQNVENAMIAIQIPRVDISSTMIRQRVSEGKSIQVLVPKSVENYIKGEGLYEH

c1ccc(-c2cc(CSc3nc4ccccc4[nH]3)on2)cc1
IC50 (Exodeoxyribonuclease V): > 119 µM (inactive)
IC50 [1]: > 119 µM (inactive)
AC50 [2]: 3.76 µM (active)
AC50 [3]: 58.3 µM (active)
IC50 [4]: 4.61 µM (active)

Cc1ccc(NCc2nnc(SCC(=O)c3ccccc3)n2Cc2ccco2)c(C)c1
IC50 [5]: 12.1 µM (active)
IC50 [6]: 23 µM (active)

COc1cccc(/C=C2\SC(=S)N(CCCC(=O)N(CCO)c3ccccc3)C2=O)c1
EC50 (BJ [7]): 3.1 µM (inconclusive)
EC50 (BJ [8]): > 150 µM (not active)
EC50 (BJ [9]): > 75 µM (inconclusive)
EC50 [10]: 6.07 µM (inconclusive)
AC50 [11]: 41.7 µM (active)
EC50 (BJ [12]): > 66.7 µM (inactive)
EC50 (Protein RecA): 7.22 µM (active)

Cc1c(O)ccc2c(CN3CCN(C/C=C/c4ccccc4)CC3)cc(=O)oc12
AC50 [13]: 19.5 µM (active)

CCOC(=O)C1(CCOc2ccccc2)CCN(Cc2cc(OC)c(O)cc2Cl)CC1
AC50 [13]: 6.03 µM (active)

NC(=O)c1nn(-c2ccccc2)nc1NC(=O)CSc1nnnn1-c1ccc(Cl)cc1
IC50 [4]: 2.27 µM (active)

Cc1cc(O)cc2c1C1CCC3(C)C(=O)CCC3C1C=C2 (stereo not given)
AC50 [13]: 19.5 µM (active)

COc1ccc2c(CC(=O)OCC(=O)N(C)c3c(N)n(Cc4ccccc4)c(=O)[nH]c3=O)coc2c1
AC50 [2]: 21.2 µM (active)
AC50 [13]: 5.45 µM (active)
